From US20260262643A1, “HERBICIDAL BENZOXAZINES” (FMC CORPORATION, priority 2022, published 2026)
Read-outs that look alike come from different tables or passages of the source.

Columns and labels:
foxtail, giant = experiment: Test A postemergence; format: in vivo, Setaria faberi; details: Setaria faberi, post-emergence, 240 h, postemergence, 10 days, 0 to 100 scale (0 no effect, 100 complete control); for pest or weed control at 125 g/ha: 125 g ai/ha, read-out: Foxtail, Giant plant response rating; for pest or weed control at 500 g/ha: 500 g ai/ha, visual injury, read-out: Plant response rating, Foxtail, Giant
In short: (§1)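 Weeds and crops in loam–sand blend were sprayed preemergence onto soil or postemergence at 2–10 cm (one- to two-leaf stage). Test chemicals were in a non-phytotoxic solvent with surfactant. After 10 days in the greenhouse, injury was rated visually against untreated controls on a 0 (no effect) to 100 (complete control) scale.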

ragweed [1] = experiment: Test A preemergence; format: in vivo, Ambrosia artemisiifolia; details: Ambrosia artemisiifolia, pre-emergence, 240 h, read-out: Plant response rating, Ragweed; for pest or weed control at 125 g/ha: 125 g ai/ha; for pest or weed control at 500 g/ha: 500 g ai/ha
In short: as §1

wheat [2] = experiment: Test A postemergence; format: in vivo, Triticum aestivum; details: Triticum aestivum, post-emergence, 240 h, postemergence, 10 days, 0 to 100 scale (0 no effect, 100 complete control); for plant injury at 125 g/ha: 125 g ai/ha, read-out: Wheat plant response rating; for plant injury at 500 g/ha: 500 g ai/ha, visual injury, read-out: Plant response rating, Wheat
In short: as §1

galium = experiment: Test A postemergence; format: in vivo, Galium aparine; details: Galium, post-emergence, 240 h, postemergence, 10 days, 0 to 100 scale (0 no effect, 100 complete control); for pest or weed control at 125 g/ha: 125 g ai/ha, read-out: Galium plant response rating; for pest or weed control at 500 g/ha: 500 g ai/ha, visual injury, read-out: Plant response rating, Galium
In short: as §1

ryegrass, Italian = experiment: Test A postemergence; format: in vivo, Lolium multiflorum; details: Lolium multiflorum, post-emergence, 240 h, postemergence, 10 days, 0 to 100 scale (0 no effect, 100 complete control); for pest or weed control at 125 g/ha: 125 g ai/ha, read-out: Ryegrass, Italian plant response rating; for pest or weed control at 500 g/ha: 500 g ai/ha, visual injury, read-out: Plant response rating, Ryegrass, Italian
In short: as §1

soybean [3] = experiment: Test A preemergence; format: in vivo, Glycine max; details: Glycine max, pre-emergence, 240 h, read-out: Plant response rating, Soybean; for plant injury at 125 g/ha: 125 g ai/ha; for plant injury at 500 g/ha: 500 g ai/ha
In short: as §1

sedge, umbrella = experiment: Test B flooded paddy test; format: in vivo, Cyperus difformis; details: Cyperus difformis, 312 h; 250 g ai/ha, Flood, 13 days, 0 to 100 scale (0 no effect, 100 complete control); read-out: Plant response rating, Sedge, Umbrella
In short: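 Application into standing water (3 cm above soil) at the two-leaf stage; flood depth held constant. Evaluation: day 13, visual comparison with controls, 0 = no injury, 100 = complete control.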

wheat [4] = experiment: Test A preemergence; format: in vivo, Triticum aestivum; details: Triticum aestivum, pre-emergence, 240 h, read-out: Plant response rating, Wheat; for plant injury at 125 g/ha: 125 g ai/ha; for plant injury at 500 g/ha: 500 g ai/ha
In short: as §1

pigweed, palmer = experiment: Test A preemergence; format: in vivo, Amaranthus palmeri; details: Amaranthus palmeri, pre-emergence, 240 h, read-out: Plant response rating, Pigweed, Palmer; for pest or weed control at 125 g/ha: 125 g ai/ha; for pest or weed control at 500 g/ha: 500 g ai/ha
In short: as §1

oat, wild = experiment: Test A postemergence; format: in vivo, Avena fatua; details: Avena fatua, post-emergence, 240 h, postemergence, 10 days, 0 to 100 scale (0 no effect, 100 complete control); for pest or weed control at 125 g/ha: 125 g ai/ha, read-out: Oat, Wild plant response rating; for pest or weed control at 500 g/ha: 500 g ai/ha, visual injury, read-out: Plant response rating, Oat, Wild
In short: as §1

soybean [5] = experiment: Test A postemergence; format: in vivo, Glycine max; details: Glycine max, post-emergence, 240 h, postemergence, 10 days, 0 to 100 scale (0 no effect, 100 complete control); for plant injury at 125 g/ha: 125 g ai/ha, read-out: Soybean plant response rating; for plant injury at 500 g/ha: 500 g ai/ha, visual injury, read-out: Plant response rating, Soybean
In short: as §1

goosegrass = experiment: Test A postemergence; format: in vivo, Eleusine indica; details: Eleusine indica, post-emergence, 240 h, postemergence, 10 days, 0 to 100 scale (0 no effect, 100 complete control); for pest or weed control at 125 g/ha: 125 g ai/ha, read-out: Goosegrass plant response rating; for pest or weed control at 500 g/ha: 500 g ai/ha, visual injury, read-out: Plant response rating, Goosegrass
In short: as §1

ragweed [6] = experiment: Test A postemergence; format: in vivo, Ambrosia artemisiifolia; details: Ambrosia artemisiifolia, post-emergence, 240 h, postemergence, 10 days, 0 to 100 scale (0 no effect, 100 complete control); for pest or weed control at 125 g/ha: 125 g ai/ha, read-out: Ragweed plant response rating; for pest or weed control at 500 g/ha: 500 g ai/ha, visual injury, read-out: Plant response rating, Ragweed
In short: as §1

corn = experiment: Test A preemergence; format: in vivo, Zea mays; details: Zea mays, pre-emergence, 240 h; for Corn plant response rating (crop injury, 0 = no effect, 100 = complete kill) at 125 g/ha: 125 g ai/ha; for Corn plant response rating (crop injury, 0 = no effect, 100 = complete kill) at 500 g/ha: 500 g ai/ha
In short: as §1

[7] = visual injury after 10 days, 0 to 100 scale, 0 is no effect, 100 is complete control
[8] = 0 to 100 scale (0 no effect, 100 complete control), 10 days

Row | Structure (SMILES) | pest or weed control at 125 g/ha (foxtail, giant) [%] | pest or weed control at 500 g/ha (foxtail, giant) [%] | pest or weed control at 125 g/ha (ragweed [1]; [7]) [%] | plant injury at 125 g/ha (wheat [2]) [%] | plant injury at 500 g/ha (wheat [2]) [%] | pest or weed control at 125 g/ha (galium) [%] | pest or weed control at 500 g/ha (galium) [%] | pest or weed control at 125 g/ha (ryegrass, Italian) [%] | pest or weed control at 500 g/ha (ryegrass, Italian) [%] | plant injury at 125 g/ha (soybean [3]; [7]) [%] | pest or weed control at 250 g/ha (sedge, umbrella) [%] | plant injury at 125 g/ha (wheat [4]; [7]) [%] | pest or weed control at 125 g/ha (pigweed, palmer; [7]) [%] | pest or weed control at 125 g/ha (oat, wild) [%] | pest or weed control at 500 g/ha (oat, wild) [%] | plant injury at 125 g/ha (soybean [5]) [%] | plant injury at 500 g/ha (soybean [5]) [%] | pest or weed control at 125 g/ha (goosegrass) [%] | pest or weed control at 500 g/ha (goosegrass) [%] | pest or weed control at 125 g/ha (ragweed [6]) [%] | also measured
1 | Cc1ccc(-n2cnc(C3CCC3)n2)cc1C(=O)N1C[C@H](C)Oc2c(Cl)cccc21 [Compound 96, [(2S)-8-Chloro-2,3-dihydro-2-methyl-4H-1,4-benzoxazin-4-yl][5-(3-cyclobutyl-1H-1,2,4-triazol-1-yl)-2-methylphenyl]methanone] | 90 | 90 | 30 | 30 | 40 | 100 | 100 | 50 | 100 | 50 | 98 | 20 | 100 | 30 | 80 | 100 | 100 | 30 | 60 | 60 | pest or weed control at 500 g/ha (ragweed [1]; [8]): 30%; plant injury at 500 g/ha (soybean [3]; [8]): 50%; plant injury at 500 g/ha (wheat [4]; [8]): 50%; pest or weed control at 500 g/ha (pigweed, palmer; [8]): 100%; pest or weed control at 500 g/ha (ragweed [6]): 70%; Corn plant response rating (crop injury, 0 = no effect, 100 = complete kill) at 125 g/ha (corn; [7]): 30%; Corn plant response rating (crop injury, 0 = no effect, 100 = complete kill) at 500 g/ha (corn; [8]): 50%
2 | Cc1ccc(-n2ncnc2C)cc1C(=O)N1C[C@H](C)Oc2c(Cl)cccc21 (single isomer, unassigned) [Compound 126] | 0 | 70 | 0 | 0 | 30 | 50 | 70 | 0 | 50 | 0 | 0 | 0 | 20 | 0 | 50 | 40 | 60 | 0 | 0 | 30 | pest or weed control at 500 g/ha (ragweed [1]; [7]): 0%; plant injury at 500 g/ha (soybean [3]; [7]): 50%; plant injury at 500 g/ha (wheat [4]; [7]): 30%; pest or weed control at 500 g/ha (pigweed, palmer; [7]): 60%; pest or weed control at 500 g/ha (ragweed [6]): 50%; Corn plant response rating (crop injury, 0 = no effect, 100 = complete kill) at 125 g/ha (corn; [7]): 0%; Corn plant response rating (crop injury, 0 = no effect, 100 = complete kill) at 500 g/ha (corn; [7]): 40%
